In paper PMC2150373, “Phase I study of the mitomycin C analogue BMS-181174” (British Journal of Cancer, 1998):
Like-named read-outs stand apart in the source and are kept apart here.

How the values were obtained:
[1] = test system: histologically proven advanced cancer
Procedure: (§1) In a phase I study of 82 patients with confirmed malignancy, we administered BMS-181174 at doses of 0.8-75 mg m-2 by intravenous injection every 28 days. At least three patients were evaluated at each dose level, and 174 courses were administered. […] BMS- 181174, also known as BMY-25067, is a semi-synthetic analogue of MMC created by substitution of the […] amino group by a nitrophenyl disulphide moiety (Figure 1). […] It is not known what form of BMS-181174 enters cells. However, it is possible that, after systemic administration, several forms of the drug in addition to the parent compound may be present, including mixed disulphides with endogenous thiols (such as cysteine, glutathione and methionine), methylated TEMMC and TEMMC disulphide. […] The anti-tumour effects of BMS-1 81174 have been evaluated in vivo (Bradner et al, 1990). […] The selection of the starting dose for the clinical study was based on the toxic low dose (TLD) in the dog.

[2] = test system: patients with histologically proven advanced cancer
Procedure: as §1

[3] = Pharmacokinetics of total TEMMC in plasma (HPLC, non-compartmental)
Procedure: as §1

mice [4] = conditions: single intravenous dose, ref Nicaise and Usakewicz, 1989; cited from earlier work
dog = conditions: ref Nicaise and Usakewicz, 1989; cited from earlier work
rats = conditions: of three species tested (mice, rats and dogs) in rats only; ref Bregman et al, 1989; cited from earlier work
B 16 melanoma = conditions: drug and tumour both intraperitoneal, or i.v. against subcutaneous tumour; ref Bradner et al, 1990; cited from earlier work
[5] = test system: subline of L1210 partly resistant to MMC; conditions: ref Bradner et al, 1990; cited from earlier work
[6] = test system: highly MMC-resistant P388; conditions: ref Bradner et al, 1990; cited from earlier work
mice [7] = conditions: respective maximum non-lethal doses in mice; ref Bradner et al, 1990; cited from earlier work
ferrets = conditions: ref Bradner et al, 1990; cited from earlier work
[8] = test system: MMC-resistant tumour cell lines; conditions: in vitro, ref Rockwell et al, 1995, cited from earlier work
[9] = preliminary in vitro studies; presumably disulphide exchange with thiols; cited from earlier work
[10] = test system: patients with solid tumors; conditions: similar doses given by 6-h infusion; ref Planting et al, 1994; cited from earlier work
mice, rats and dogs = conditions: cited from earlier work
patients = conditions: clinical use of MMC, Rabadi et al, 1982, cited from earlier work
[11] = 65 mg m-2, 12 patients all pretreated with chemotherapy
[12] = 75 mg m-2, 14 patients with no prior chemotherapy
[13] = 75 mg m-2, six previously treated patients

In the case of `CO[C@@]12[C@H](COC(N)=O)C3=C(C(=O)C(C)=C(NCCSSc4ccc([N+](=O)[O-])cc4)C3=O)N1C[C@@H]1N[C@@H]12` [BMS-181174, N-7[2-(4-nitrophenyldithio)ethyl] mitomycin C], the partial response rate ([1]; 3 out of 32 patients treated at 65-75 mg m-2) is reported as 9%, the “treatment discontinued for progressive disease” value ([1]; 22 out of 32 patients at 65-75 mg m-2) is reported as 69% and the “treatment discontinued because of progressive disease” value ([1]; 44 of 50 patients treated at 0.8-50 mg m-2) is reported as 88%. The partial response rate ([1]; 50 patients treated at 0.8-50 mg m-2) was 2%, the “minor response (MR), no. of patients” value ([1]; Total, 82 patients) was 1 and the “partial response (PR), no. of patients” value ([1]; Total, 82 patients) was 4. The “stable disease (SD), no. of patients” value ([1]; Total, 82 patients) was 8, the “progressive disease (PD), no. of patients” value ([1]; Total, 82 patients (10 not evaluable)) was 59 and the overall response rate ([1]; all dose levels (discussion)) was 6%. The partial response rate ([1]; overall, 4 out of 82 patients, 0.8-75 mg m-2) was 5%, the “Thrombophlebitis, worst grade 0, no. of patients” value ([2]; 65.0 mg m-2, 12 patients) was 7 and the “Thrombophlebitis, worst grade 1, no. of patients” value ([2]; 65.0 mg m-2, 12 patients) was 0. For the same molecule, the “Thrombophlebitis, worst grade 2, no. of patients” value ([2]; 65.0 mg m-2, 12 patients) was 4, the “Thrombophlebitis, worst grade 3, no. of patients” value ([2]; 65.0 mg m-2, 12 patients) was 1 and the “Thrombophlebitis, worst grade 4, no. of patients” value ([2]; 65.0 mg m-2, 12 patients) was 1. For the same molecule, the “grade 4 anaemia, incidence” value [2, 11] was 8%, the “grade 4 thrombocytopenia, incidence” value [2, 11] was 17% and the “grade 3-4 anaemia, incidence” value [2, 12] was 7%. For the same molecule, the “grade 3-4 neutropenia, incidence” value [2, 12] was 7%, the “grade 3-4 thrombocytopenia, incidence” value [2, 12] was 21% and the “patients with grade 4 thrombocytopenia (total)” value ([2]; 75 mg m-2, 20 patients) was “eight”. The “Thrombophlebitis, worst grade 0, no. of patients” value ([2]; 75.0 mg m-2, 20 patients) was 12, the “Thrombophlebitis, worst grade 1, no. of patients” value ([2]; 75.0 mg m-2, 20 patients) was 0 and the “Thrombophlebitis, worst grade 2, no. of patients” value ([2]; 75.0 mg m-2, 20 patients) was 3. The “Thrombophlebitis, worst grade 3, no. of patients” value ([2]; 75.0 mg m-2, 20 patients) was 3, the “Thrombophlebitis, worst grade 4, no. of patients” value ([2]; 75.0 mg m-2, 20 patients) was 2 and the “grade 3-4 anaemia, patients” value [2, 13] was “none”. The “grade 3-4 neutropenia, incidence” value [2, 13] was 33%, the “grade 3-4 thrombocytopenia, incidence” value [2, 13] was 83% and the “thrombophlebitis, incidence” value ([2]; 31 patients treated at 7.5-50 mg m-2, generally grade 1-2) was 26%. For the same molecule, the “thrombophlebitis of grade 3-4, incidence” value ([2]; 32 evaluable patients treated at 65-75 mg m-2) was 22%, the “treatment discontinued because of toxicity” value ([2]; 32 patients at 65-75 mg m-2) was 53% and the “significant reduction in LVEF, incidence” value ([2]; 62 evaluable patients, all dose levels) was 15%. The “patients who died suddenly with pneumonia/pneumonitis thought drug-related” value ([2]; 65-75 mg m-2) was “Three”, the “median nadir times for neutropenia” value ([2]; 65-75 mg m-2 (discussion)) was 15 to 19 days and the “nadirs for thrombocytopenia (median time)” value ([2]; 65-75 mg m-2 (discussion)) was 16 to 24 days. For the same molecule, the “Haemoglobin, worst WHO grade 1, no. of patients” value ([2]; 75-T, 6 patients) was 2, the “Haemoglobin, worst WHO grade 2, no. of patients” value ([2]; 75-T, 6 patients) was 4 and the “Haemoglobin, worst WHO grade 3, no. of patients” value ([2]; 75-T, 6 patients) was 0. The “Haemoglobin, worst WHO grade 4, no. of patients” value ([2]; 75-T, 6 patients) was 0, the “Neutrophils, worst WHO grade 0, no. of patients” value ([2]; 75-T, 6 patients) was 1 and the “Neutrophils, worst WHO grade 1, no. of patients” value ([2]; 75-T, 6 patients) was 1. For the same molecule, the “Neutrophils, worst WHO grade 2, no. of patients” value ([2]; 75-T, 6 patients) was 2, the “Neutrophils, worst WHO grade 3, no. of patients” value ([2]; 75-T, 6 patients) was 2 and the “Neutrophils, worst WHO grade 4, no. of patients” value ([2]; 75-T, 6 patients) was 0. The “Platelets, worst WHO grade 0, no. of patients” value ([2]; 75-T, 6 patients) was 1, the “Platelets, worst WHO grade 1, no. of patients” value ([2]; 75-T, 6 patients) was 0 and the “Platelets, worst WHO grade 2, no. of patients” value ([2]; 75-T, 6 patients) was 0. For the same molecule, the “Platelets, worst WHO grade 3, no. of patients” value ([2]; 75-T, 6 patients) was 2, the “Platelets, worst WHO grade 4, no. of patients” value ([2]; 75-T, 6 patients) was 3 and the “Haemoglobin, worst WHO grade 0, no. of patients” value ([2]; 75-T: 75 mg m-2, prior chemotherapy, 6 patients) was 0. The “Haemoglobin, worst WHO grade 1, no. of patients” value ([2]; 75-U, 14 patients) was 3, the “Haemoglobin, worst WHO grade 2, no. of patients” value ([2]; 75-U, 14 patients) was 7 and the “Haemoglobin, worst WHO grade 3, no. of patients” value ([2]; 75-U, 14 patients) was 1. For the same molecule, the “Haemoglobin, worst WHO grade 4, no. of patients” value ([2]; 75-U, 14 patients) was 0, the “Neutrophils, worst WHO grade 0, no. of patients” value ([2]; 75-U, 14 patients) was 10 and the “Neutrophils, worst WHO grade 1, no. of patients” value ([2]; 75-U, 14 patients) was 1. The “Neutrophils, worst WHO grade 2, no. of patients” value ([2]; 75-U, 14 patients) was 2, the “Neutrophils, worst WHO grade 3, no. of patients” value ([2]; 75-U, 14 patients) was 0 and the “Neutrophils, worst WHO grade 4, no. of patients” value ([2]; 75-U, 14 patients) was 1. The “Platelets, worst WHO grade 0, no. of patients” value ([2]; 75-U, 14 patients) was 7, the “Platelets, worst WHO grade 1, no. of patients” value ([2]; 75-U, 14 patients) was 1 and the “Platelets, worst WHO grade 2, no. of patients” value ([2]; 75-U, 14 patients) was 3. The “Platelets, worst WHO grade 3, no. of patients” value ([2]; 75-U, 14 patients) was 0, the “Platelets, worst WHO grade 4, no. of patients” value ([2]; 75-U, 14 patients) was 3 and the “Haemoglobin, worst WHO grade 0, no. of patients” value ([2]; 75-U: 75 mg m-2, previously untreated, 14 patients) was 3. The “possible renal toxicity (rise in serum creatinine), incidence” value ([2]; 82 patients, all dose levels) was 4%, the possible treatment-related deaths ([2]; 82 patients, all dose levels) was “four” and the “grade 1-2 nausea, number of patients” value ([2]; 82 patients, with prophylactic antiemetics) was 21. The “moderate or severe emesis (grade 2-3), number of patients” value ([2]; 82 patients, thirteen of them treated at 65-75 mg m-2) was “fifteen”, the “time for platelet counts to recover to normal, median” value ([2]; after 65 mg m-2, range 21-45 days) was 25 days and the “time for granulocyte counts to recover to normal, median” value ([2]; after 65 mg m-2, range 27-42 days) was 34.5 days. The “time for granulocyte counts to recover to normal, median” value ([2]; after 75 mg m-2, range 19-43) was 22.5 days, the “time for platelet counts to recover to normal, median” value ([2]; after 75 mg m-2, range 20-46) was 29.5 days and the “time to nadir blood counts, median” value ([2]; all dose levels) was 15 to 22 days. For the same molecule, the maximum-tolerated dose ([2]; chemotherapy-naive patients, i.v. every 28 days) was 75 mg m-2, the “Significant reduction in LVEF, no. of patients” value ([2]; dose 0.8 mg m-2, 4 patients (3 not evaluable)) was 0 and the “Significant reduction in LVEF, no. of patients” value ([2]; dose 1.6 mg m-2, 3 patients (1 not evaluable)) was 1. For the same molecule, the “Significant reduction in LVEF, no. of patients” value ([2]; dose 3.2 mg m-2, 7 patients (0 not evaluable)) was 2, the “Significant reduction in LVEF, no. of patients” value ([2]; dose 5.0 mg m-2, 5 patients (1 not evaluable)) was 1 and the “Significant reduction in LVEF, no. of patients” value ([2]; dose 7.5 mg m-2, 5 patients (0 not evaluable)) was 0. For the same molecule, the “Significant reduction in LVEF, no. of patients” value ([2]; dose 11.5 mg m-2, 7 patients (2 not evaluable)) was 0, the “Significant reduction in LVEF, no. of patients” value ([2]; dose 19 mg m-2, 8 patients (3 not evaluable)) was 0 and the “Significant reduction in LVEF, no. of patients” value ([2]; dose 32 mg m-2, 5 patients (1 not evaluable)) was 1. For the same molecule, the “Significant reduction in LVEF, no. of patients” value ([2]; dose 50 mg m-2, 6 patients (2 not evaluable)) was 1, the “Significant reduction in LVEF, no. of patients” value ([2]; dose 65 mg m-2, 12 patients (3 not evaluable)) was 0 and the “Significant reduction in LVEF, no. of patients” value ([2]; dose 75 mg m-2, 20 patients (4 not evaluable)) was 3. The “thrombophlebitis of grades 1-3, incidence” value ([2]; dose levels 0.8-19 mg m-2, bolus injection) was 13%, the dose-limiting toxicity ([2]; i.v. every 28 days) was “myelosuppression” and the maximum-tolerated dose ([2]; previously treated patients, i.v. every 28 days) was 65 mg m-2. For the same molecule, the “significant reduction in LVEF, incidence” value ([2]; sixteen evaluable patients at 75 mg m-2) was 19%, the “haematological toxicity (grade >3)” value ([2]; up to 50 mg m-2) was “no significant” and the “plasma levels of TEMMC” value ([3]; 0.8 and 1.6 mg m-2 dose levels, assay lower limit of quantitation 50 ng ml-1) was “not sufficiently sensitive to quantify plasma levels”. For the same molecule, the “dose linearity of pharmacokinetics” value ([3]; in vivo) was “dose linear”, the LD10 (mice [4]) was 24.9 mg m-2 and the “toxic low dose (TLD)” value (dog) was 2.5 mg m-2. The cardiotoxicity (rats) was “dose-related cardiotoxicity”, the “anti-tumour activity compared with MMC” value (B 16 melanoma) was “superior activity” and the anti-tumour activity [5] was “slight activity”. For the same molecule, the anti-tumour activity [6] was “inactive”, the “neutropenia compared with MMC” value (mice [7]) was “less neutropenia than MMC” and the “neutropenia and thrombocytopenia compared with MMC” value (ferrets) was “less neutropenic and much less thrombocytopenic”. For the same molecule, the “toxicity in hypoxic versus aerobic conditions” value ([8]; unlike MMC) was “not more toxic in hypoxic than aerobic conditions”, the “activity against MMC-resistant tumour cell lines” value [8] was “active” and the disappearance in plasma [9] was “rapidly”. For the same molecule, the “toxicity of 6-h infusion” value [10] was “local venous toxicity with thrombophlebitis and venospasm”, the preclinical toxicity (mice, rats and dogs; preclinical testing of MMC analogues, ref Bregman et al, 1989) was “myelosuppression and proteinuria” and the “myelosuppression compared with parent compound MMC” value (mice, rats and dogs; preclinical, ref Doyle and Vyas, 1990) was “marginally less myelosuppressive than the parent compound”.

For `CO[C@@]12[C@H](COC(N)=O)C3=C(C(=O)C(C)=C(N)C3=O)N1C[C@@H]1N[C@@H]12` [MMC, Mitomycin C], the “patients with a rise in serum creatinine” value (patients; ref Martino et al, 1979, Ratanatharathom et al) is given as 2% and the dose-limiting toxicity (patients; ref Carter and Crooke, 1979) is given as “myelosuppression”.
